This passage reports IC50 results from US7655633B2, “Nitrogen-containing heterocyclic derivatives, medicinal compositions containing the same and medicinal use thereof” (Kissei Pharmaceutical Co., Ltd., priority 2002, dated 2010).

This assay concerns the target T1, human SGLT2 (Homo sapiens, UniProt P31639).
T1 construct: expressed in transfected cells
T1 sequence (P31639 1-672): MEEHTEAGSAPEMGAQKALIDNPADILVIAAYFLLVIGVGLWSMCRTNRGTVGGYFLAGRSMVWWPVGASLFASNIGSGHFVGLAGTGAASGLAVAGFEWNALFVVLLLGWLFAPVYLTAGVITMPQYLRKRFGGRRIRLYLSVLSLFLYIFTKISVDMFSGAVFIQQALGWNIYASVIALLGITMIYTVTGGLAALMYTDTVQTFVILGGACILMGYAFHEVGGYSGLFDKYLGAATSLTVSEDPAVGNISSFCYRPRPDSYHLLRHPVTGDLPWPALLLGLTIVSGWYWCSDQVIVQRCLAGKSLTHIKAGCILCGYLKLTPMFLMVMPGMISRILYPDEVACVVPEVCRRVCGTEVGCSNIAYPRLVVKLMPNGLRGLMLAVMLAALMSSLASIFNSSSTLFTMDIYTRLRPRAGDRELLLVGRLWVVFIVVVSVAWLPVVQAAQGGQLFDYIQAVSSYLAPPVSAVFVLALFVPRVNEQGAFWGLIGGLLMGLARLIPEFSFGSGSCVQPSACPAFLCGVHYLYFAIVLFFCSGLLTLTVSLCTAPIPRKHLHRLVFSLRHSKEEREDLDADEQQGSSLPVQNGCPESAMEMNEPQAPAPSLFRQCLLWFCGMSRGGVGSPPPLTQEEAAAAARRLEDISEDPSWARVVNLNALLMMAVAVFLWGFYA
The experiment in a line: Assay for inhibitory effects on human SGLT2 activity (uptake of methyl-α-D-glucopyranoside in CS2-5E cells). It is filed as cell-based. Conditions: inhibition of 14C-labeled α-MG (1 mM) uptake, CHO-K1 cells stably expressing human SGLT2 (CS2-5E), 37° C., 1 hour. As for the experimental part: Assay for Inhibitory Effects on Human SGLT2 Activity
1) Cloning and Construction of the Vector Expressing Human SGLT2
The cDNA library was prepared for PCR amplification by reverse transcription from total RNA deprived from human kidney (Ori gene) using oligo-dT as a primer. Using this cDNA library as a template, the base sequence coding 2 to 2039 bp of human SGLT2 (ACCESSION: M95549, M95299), which was reported by R. G. Wells et al., was amplified by PCR method and inserted into the multi-cloning site of pcDNA3.1(−) (Invitrogen). The DNA sequence inserted was perfectly matched to the previously reported sequence.
2) Establishment of Cell Line Stably Expressing Human SGLT2
The expression vector of human SGLT2 was digested by Sca I into a linear DNA. The linear DNA was transfected into CHO-K1 cells by means of lipofection (Effectene Transfection Reagent: QIAGEN). Neomycin resistant cell lines were obtained by culture in the medium containing 1 mg/mL of G418 (LIFE TECHNOLOGIES), and then the activity against the uptake of methyl-α-D-gluco-pyranoside was measured by the method described below. […] Afterward, CS2-5E cells were cultured in the presence of G418 at 200 μg/mL. […]
CS2-5E cells were seeded into a 96-well culture plate at a density of 3×10^4 cells/well and cultured for 2 days, and were used in the uptake assay. […] Radioactivity was measured by means of scintillation counter (Packard). […]

In the case of `Cc1cc(C)c(Cc2ccc(C)c(F)c2)c(O[C@@H]2O[C@H](CO)[C@@H](O)[C@H](O)[C@H]2O)n1` [Example 1, 2-(β-D-Glucopyranosyloxy)-3-(3-fluoro-4-methylbenzyl)-4,6-dimethylpyridine], inhibition was half-maximal at 3 nM (IC50).

The IC50 is the point on the concentration scale where inhibition reaches its midpoint. High values mean weaker potency in that assay, low ones greater potency in that assay.
